From patent publication US20250325687A1, “CONJUGATE COMPRISING TOLL-LIKE RECEPTOR AGONIST” (MABSOFT THERAPEUTICS (SHANGHAI) CO., LTD., priority 2022, published 2025) come the findings set out here.

Where two headings read alike, the source gives them in different places.

Holding throughout (format): cell-based
The target in assay [1] is T1, hTLR8 (human Toll-like receptor 8) (Homo sapiens, UniProt Q9NR97).
T1 construct: host or cells: HEK-Blue hTLR8 (HEK293-derived reporter cells)
T1 sequence (Q9NR97 27-1041): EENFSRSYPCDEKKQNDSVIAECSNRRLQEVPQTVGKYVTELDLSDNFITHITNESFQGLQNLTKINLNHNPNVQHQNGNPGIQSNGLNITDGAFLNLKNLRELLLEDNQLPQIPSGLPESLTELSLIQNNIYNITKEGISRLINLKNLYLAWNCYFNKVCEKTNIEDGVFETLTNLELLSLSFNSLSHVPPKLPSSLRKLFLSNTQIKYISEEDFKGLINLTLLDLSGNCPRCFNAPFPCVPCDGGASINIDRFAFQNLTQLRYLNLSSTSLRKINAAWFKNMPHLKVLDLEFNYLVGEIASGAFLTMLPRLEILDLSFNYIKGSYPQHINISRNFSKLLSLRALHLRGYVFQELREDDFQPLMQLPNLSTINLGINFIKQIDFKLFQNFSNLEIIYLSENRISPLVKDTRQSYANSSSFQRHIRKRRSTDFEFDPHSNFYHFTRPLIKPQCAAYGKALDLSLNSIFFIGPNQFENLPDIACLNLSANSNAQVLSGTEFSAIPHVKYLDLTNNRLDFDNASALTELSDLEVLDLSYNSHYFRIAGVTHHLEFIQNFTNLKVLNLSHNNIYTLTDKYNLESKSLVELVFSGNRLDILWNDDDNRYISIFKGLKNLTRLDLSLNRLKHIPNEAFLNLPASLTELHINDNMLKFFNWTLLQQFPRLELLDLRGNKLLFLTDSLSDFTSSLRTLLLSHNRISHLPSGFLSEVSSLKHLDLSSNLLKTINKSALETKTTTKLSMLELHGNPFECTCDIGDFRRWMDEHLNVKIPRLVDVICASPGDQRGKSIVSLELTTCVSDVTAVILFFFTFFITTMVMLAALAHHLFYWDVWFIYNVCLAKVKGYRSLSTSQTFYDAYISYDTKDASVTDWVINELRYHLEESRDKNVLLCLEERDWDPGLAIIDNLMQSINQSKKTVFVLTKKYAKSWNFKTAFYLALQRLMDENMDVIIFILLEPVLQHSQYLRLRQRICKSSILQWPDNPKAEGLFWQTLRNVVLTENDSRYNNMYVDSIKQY
In words: hTLR8 cell assay (HEK-Blue hTLR8 reporter cells). The following applies: 24 hours, OD 650 nm. Here is the method:
(§1) The payload compounds of Formula (II′) were assayed to evaluate their agonistic activity on hTLR7 (human Toll-like receptor 7) and hTLR8 (human Toll-like receptor 8). Reporter cells lines (HEK-Blue hTLR7 and HEK-Blue hTLR8) were obtained from InvivoGen. Cells were cryopreserved in liquid nitrogen per supplier's instruction. Upon test, the cells were thawed, passaged and cultured in the growth media of DMEM supplemented with 10% fetal bovine serum, 1×NEAA, 1 mM Pyruvate, 2 mM glutamine, […] in the presence of the following antibiotics, as shown as Table 1. Test compounds (at desired concentrations diluted) were added to the 96-well assay plate, 0.5 μL per well. Reporter cells were harvested from the tissue culture flasks by incubation in PBS at 37° C. for two minutes after the media in the flask is removed and cells rinsed with PBS. Cells were counted and diluted in the HEK-Blue Detection media at 50000 cells/mL and incubated for 24 hours at 37° C., in a 5% CO2 humidified incubator. Then 20 μL of cell supernatant were added to the assay plate containing the 180 µL of QUANTI-Blue, incubated for 1 hour at 37° C. Optical density at 650 nm was analyzed using an Envision (Perkin Elmer) plate reader.

The target in assay [2] is T2, hTLR7 (human Toll-like receptor 7) (Homo sapiens, UniProt Q9NYK1).
T2 construct: host or cells: HEK-Blue hTLR7 (HEK293-derived reporter cells)
T2 sequence (Q9NYK1 27-1049): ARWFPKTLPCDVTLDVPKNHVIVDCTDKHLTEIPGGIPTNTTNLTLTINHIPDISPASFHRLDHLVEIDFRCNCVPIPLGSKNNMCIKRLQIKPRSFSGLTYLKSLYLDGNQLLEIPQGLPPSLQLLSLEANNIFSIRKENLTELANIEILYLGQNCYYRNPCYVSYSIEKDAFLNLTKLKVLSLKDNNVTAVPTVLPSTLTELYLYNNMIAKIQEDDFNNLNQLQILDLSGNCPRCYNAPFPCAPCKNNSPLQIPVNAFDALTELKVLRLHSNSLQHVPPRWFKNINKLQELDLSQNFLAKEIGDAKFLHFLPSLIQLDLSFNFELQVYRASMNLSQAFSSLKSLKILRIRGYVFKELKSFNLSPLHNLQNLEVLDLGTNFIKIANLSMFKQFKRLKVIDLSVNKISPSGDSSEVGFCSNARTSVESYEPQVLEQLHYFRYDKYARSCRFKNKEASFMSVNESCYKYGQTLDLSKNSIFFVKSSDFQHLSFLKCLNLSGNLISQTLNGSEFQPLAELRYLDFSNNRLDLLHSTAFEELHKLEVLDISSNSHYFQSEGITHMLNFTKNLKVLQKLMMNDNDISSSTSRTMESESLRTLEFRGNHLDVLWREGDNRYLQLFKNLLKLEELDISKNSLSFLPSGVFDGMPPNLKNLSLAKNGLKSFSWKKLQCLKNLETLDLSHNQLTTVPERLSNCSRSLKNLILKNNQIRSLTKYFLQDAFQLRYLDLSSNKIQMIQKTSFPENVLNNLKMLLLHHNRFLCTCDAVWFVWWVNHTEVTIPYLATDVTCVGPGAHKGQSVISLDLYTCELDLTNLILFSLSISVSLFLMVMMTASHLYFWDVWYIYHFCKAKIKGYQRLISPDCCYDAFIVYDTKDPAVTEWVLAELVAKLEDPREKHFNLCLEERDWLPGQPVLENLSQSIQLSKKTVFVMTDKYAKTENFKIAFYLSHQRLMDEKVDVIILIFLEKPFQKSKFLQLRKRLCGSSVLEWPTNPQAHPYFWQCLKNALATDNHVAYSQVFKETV
Description: hTLR7 cell assay (HEK-Blue hTLR7 reporter cells). Particulars: 24 hours, OD 650 nm. Here is the method: as §1

In assay [3] the test system is human PBMC (human peripheral blood mononuclear cells). Description: PBMC screening assay: induction of TNF-α production. The following applies: read-out: EC50 (μM) TNF-α (hPBMC). The protocol:
The payload compounds of Formula (II′) were assayed to evaluate the induction of TNF-α production in human PBMC (human peripheral blood mononuclear cells).
Human peripheral blood mononuclear cells (PBMC) were obtained from Allcells. […] PBMC were incubated for 24 hours at 37° C. in a 5% CO2 humidified incubator. The following day PBMC plates were centrifuged at 500×g for 5 minutes and the growth media was removed. 200 μL of compound prepared in growth media at a series of diluted concentrations ranging from 2.54 nM to 50 μM were added to PBMC in duplicate and incubated for 24 hours at 37° C. in a 5% CO2 incubator. Prior to supernatant harvest, cells were spun at 500×g for 5 minutes to remove cell debris. TNF-α activity was assessed in the supernatant by ELISA (Elabscience) per the manufacturer's instructions. Optical density at 450 nm (ELISA) was analyzed using a plate reader.

Setting [4] is: human PBMC, 24 hours, TNF-α by ELISA, class symbols.

As a reminder, the EC50 is the midpoint of the concentration-response curve. Turning to `CCCCc1nc2c(N)nc3cc(Cc4cc(CN)ccc4F)ccc3c2n1CC(C)(C)O` [Compound 67, 1-(4-amino-7-(5-(aminomethyl)-2-fluorobenzyl)-2-butyl-1H-imidazo[4,5-c]quinolin-1-yl)-2-methylpropan-2-ol], the EC50 in assay [1] is less than 5000 nM; in assay [2], less than 1000 nM; in assay [3] (setting [4]), less than 0.64 µM.
For `CCOCc1nc2c(N)nc3cc(Cc4cccc(C(=O)NCCN)c4)ccc3c2n1CC(C)(C)O` [Compound 151, 3-((4-amino-2-(ethoxymethyl)-1-(2-hydroxy-2-methylpropyl)-1H-imidazo[4,5-c]quinolin-7-yl)methyl)-N-(2-aminoethyl)benzamide], the EC50 in assay [1] was less than 5000 nM; in assay [2], 1000 to 10000 nM; in assay [3] (setting [4]) it was less than 0.64 µM.
The matching figures for `CCCCc1nc2c(N)nc3cc(Cc4cccc(C(=O)NCCN)c4)ccc3c2n1CC(C)(C)O` [Compound 64, 3-((4-amino-2-butyl-1-(2-hydroxy-2-methylpropyl)-1H-imidazo[4,5-c]quinolin-7-yl)methyl)-N-(2-aminoethyl)benzamide]: less than 5000 nM, 1000 to 10000 nM and less than 0.64 µM.
On the same counts, the results for `CCCCc1nc2c(N)nc3cc(Cc4ccc(CCCN)cc4)ccc3c2n1CC(C)(C)O` [Compound 15, 1-(4-amino-7-(4-(3-aminopropyl)benzyl)-2-butyl-1H-imidazo[4,5-c]quinolin-1-yl)-2-methylpropan-2-ol] are less than 5000 nM, 1000 to 10000 nM and less than 0.64 µM.
The matching figures for `CC(C)(O)Cn1c(CCCC(F)(F)F)nc2c(N)nc3cc(Cc4cccc(CN)c4)ccc3c21` [Compound 51, 1-(4-amino-7-(3-(aminomethyl)benzyl)-2-(4,4,4-trifluorobutyl)-1H-imidazo[4,5-c]quinolin-1-yl)-2-methylpropan-2-ol]: less than 5000 nM, less than 1000 nM and greater than 0.64 µM.
As for `CCOCc1nc2c(N)nc3cc(Cc4ccc5c(c4)CCNC5)ccc3c2n1CC(C)(C)O` [Compound 152, 1-(4-amino-2-(ethoxymethyl)-7-((1,2,3,4-tetrahydroisoquinolin-6-yl)methyl)-1H-imidazo[4,5-c]quinolin-1-yl)-2-methylpropan-2-ol], the EC50 in assay [1] is less than 5000 nM; in assay [2], less than 1000 nM; in assay [3] (setting [4]) it was less than 0.64 µM.
Regarding `CCCC(C)c1nc2c(N)nc3cc(Cc4ccccc4)ccc3c2n1CC(C)(C)OCCCN` (stereo not shown) [Compound 32, 1-(2-(3-aminopropoxy)-2-methylpropyl)-7-benzyl-2-(pentan-2-yl)-1H-imidazo[4,5-c]quinolin-4-amine], the EC50 in assay [1] is less than 5000 nM; in assay [2], 1000 to 10000 nM; in assay [3] (setting [4]), greater than 0.64 µM.
As to `CCCCc1nc2c(N)nc3cc(Cc4cccc(CN)c4)ccc3c2n1CC(C)(C)O` [Compound 16, 1-(4-amino-7-(3-(aminomethyl)benzyl)-2-butyl-1H-imidazo[4,5-c]quinolin-1-yl)-2-methylpropan-2-ol], the 50% effective concentration (EC50) was less than 5000 nM in assay [1], less than 1000 nM in assay [2] and less than 0.64 µM in assay [3] (setting [4]).
Consider `CCOCc1nc2c(N)nc3cc(Cc4cccc(CNC(=O)CN)c4)ccc3c2n1CC(C)(C)O` [Compound 150, 2-amino-N-(3-((4-amino-2-(ethoxymethyl)-1-(2-hydroxy-2-methylpropyl)-1H-imidazo[4,5-c]quinolin-7-yl)methyl)benzyl)acetamide], for which the EC50 in assay [1] is less than 5000 nM; in assay [2] it was 1000 to 10000 nM; in assay [3] (setting [4]) it was less than 0.64 µM.
As for `CCCCc1nc2c(N)nc3cc(Cc4ccc(F)c(CN)c4)ccc3c2n1CC(C)(C)O` [Compound 68, 1-(4-amino-7-(3-(aminomethyl)-4-fluorobenzyl)-2-butyl-1H-imidazo[4,5-c]quinolin-1-yl)-2-methylpropan-2-ol], the half-maximal effective concentration (EC50) was less than 5000 nM in assay [1], less than 1000 nM in assay [2] and less than 0.64 µM in assay [3] (setting [4]).
With `CCCCc1nc2c(N)nc3cc(Cc4cccc(CCCN)c4)ccc3c2n1CC(C)(C)O` [Compound 18, 1-(4-amino-7-(3-(3-aminopropyl)benzyl)-2-butyl-1H-imidazo[4,5-c]quinolin-1-yl)-2-methylpropan-2-ol], the half-maximal effective concentration (EC50) in assay [1] was 5000 to 20000 nM; in assay [2], less than 1000 nM; in assay [3] (Homo sapiens, PBMC, 24 h) it was greater than 0.64 µM.
`CCOCc1nc2c(N)nc3cc(Cc4ccccc4)ccc3c2n1CC(C)(C)O` [Compound 171, 1-(4-amino-7-benzyl-2-(ethoxymethyl)-1H-imidazo[4,5-c]quinolin-1-yl)-2-methylpropan-2-ol]: the EC50 in assay [3] (setting [4]) was less than 0.64 µM.
In the case of `CCOCc1nc2c(N)nc3cc(Cc4ccc(CNC(=O)CO)s4)ccc3c2n1CC(C)(C)O` [Compound 169], in assay [3] (setting [4]), the 50% effective concentration (EC50) is greater than 0.64 µM.
Turning to `CCOCc1nc2c(N)nc3cc(Cc4ccc(CCN(C)C)cc4)ccc3c2n1CC(C)(C)OCCN` [Compound 24, 1-(2-(2-aminoethoxy)-2-methylpropyl)-7-(4-(2-(dimethylamino)ethyl)benzyl)-2-(ethoxymethyl)-1H-imidazo[4,5-c]quinolin-4-amine], the concentration for a half-maximal effect (EC50) in assay [1] is greater than 20000 nM; in assay [2], greater than 10000 nM.
